Experimental data published in US5304549A, “Amino acid derivatives” (Hoffmann-La Roche Inc., priority 1991, dated 1994).
Counter-ions that a name gives are not always drawn.

Biological target: T1, collagenase obtained from a culture of human synovial fibroblasts (Homo sapiens, UniProt P03956)
T1 construct: endogenous in cells; host or cells: human synovial fibroblasts in culture (conditioned medium)
T1 sequence (P03956 100-469): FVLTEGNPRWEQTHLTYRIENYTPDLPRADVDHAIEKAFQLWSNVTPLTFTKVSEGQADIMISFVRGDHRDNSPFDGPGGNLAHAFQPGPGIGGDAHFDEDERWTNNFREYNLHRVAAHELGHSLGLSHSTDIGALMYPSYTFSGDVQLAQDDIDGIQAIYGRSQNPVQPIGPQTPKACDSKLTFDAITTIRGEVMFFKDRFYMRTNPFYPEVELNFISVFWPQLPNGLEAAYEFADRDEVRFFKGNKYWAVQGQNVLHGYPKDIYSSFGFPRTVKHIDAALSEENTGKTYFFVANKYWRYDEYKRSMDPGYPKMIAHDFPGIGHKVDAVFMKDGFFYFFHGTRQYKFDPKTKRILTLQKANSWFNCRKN
Assay: in vitro collagenase inhibiting activity (14C-acetylated collagen type I from rat tail tendons as substrate, microtitre plate assay)
Type: biochemical
Settings: human synovial fibroblast collagenase, trypsin-activated; 14C-acetylated rat tail tendon collagen type I

SMILES | IC50 [nM]
CNC(=O)[C@@H](NC(=O)C(CC(C)C)CP(=O)(O)CN1C(=O)c2cccc3c(O)c(Br)cc(c23)C1=O)C(C)(C)C (single isomer, unassigned) [Compound B, N^2-[2(R or S)-[[[(5-bromo-2,3-dihydro-6-hydroxy-1,3-dioxo-1H-benz[d,e]isoquinol-2-yl)methyl](hydroxy)phosphinyl]methyl]-4-methylvaleryl]-N^1,3-dimethyl-L-valinamide] | 4
CNC(=O)[C@@H](NC(=O)[C@H](CC(C)C)C(CCCC(=O)OC)C(=O)NO)C(C)(C)C (single isomer, unassigned) [Compound F, N^2-[2(R)-[1(R or S)-(hydroxycarbamoyl)-4-(methoxycarbonyl)butyl]-4-methylvaleryl]-N^1,3-dimethyl-L-valinamide] | 0.9
CNC(=O)[C@@H](NC(=O)[C@H](CC(C)C)C(CN1C(=O)CCC1=O)C(=O)NO)C(C)(C)C (single isomer, unassigned) [Compound H, N^2-[2(R)-[1(R or S)-(hydroxycarbamoyl)-2-succinimidoethyl]-4-methylvaleryl]-N^1,3-dimethyl-L-valinamide] | 0.5
CNC(=O)[C@@H](NC(=O)[C@@H](CC(=O)NO)CC(C)C)C(C)(C)C [Compound A, N^2-[2(R)-[Hydroxycarbamoylmethyl]-4-methylvaleryl]-N^1,3-dimethyl-L-valinamide] | 4

Other lines, results leading:

IC50 [nM] | SMILES
9 | CNC(=O)C(NC(=O)C(CC(C)C)C(N)P(=O)(O)CN1C(=O)c2cccc3c(O)c(Br)cc(c23)C1=O)C(C)(C)C (single isomer, unassigned) [Compound C, N^2-[2-(R or S)-[[(R)-(amino)-[(5-bromo-2,3-dihydro-6-hydroxy-1,3-dioxo-1H-benz[d,e]isoquinol-2-yl)methyl](hydroxy)phosphinyl]methyl]-4-methylvaleryl]-N^1,3-dimethyl-L-valinamide hydrobromide]
1.9 | CNC(=O)[C@@H](NC(=O)[C@H](CC(C)C)C(CCCc1ccccc1)C(=O)NO)C(C)(C)C (single isomer, unassigned) [Compound G, N^2-[2(R)-[1(R or S)-(hydroxycarbamoyl)-4-phenylbutyl]-4-methylvaleryl]-N^1,3-dimethyl-L-valinamide]
2 | CNC(=O)[C@@H](NC(=O)C(CC(C)C)[C@H](C)C(=O)NO)C(C)(C)C (single isomer, unassigned; isomer 2) [Compound D, N^2-[2(R or S)-[1(S)-(hydroxycarbamoyl)ethyl]-4-methylvaleryl]-N^1,3-dimethyl-L-valinamide (isomer 2)]
